Entries after “also recorded” stand apart in the source; their conditions may differ.
Tests used:
[1] = tested on: larva of giant tobacco budworm (Heliothis obsoleta Fabricius); details: cited from earlier work
[2] = tested on: azuki bean weevil (Callosobruchus chinensis); assay: Insecticidal test on artificial beans, azuki bean weevil; type: in vivo
Experimental: (§1) These two species of bean weevils were cultured in the same way. In a 9 cm Petri dish containing 300 mungbean seeds, was placed ten adults of bean weevil and egg production was induced. After egg production, the adults were removed and cultured in a thermostatically controlled incubator at 60% humidity and 30° C. After 25 to 30 days from the egg production, the adults emerged. The emerged adults were used in the test for insecticidal activity.
(§2) To 1 g of the cotyledon powder of mungbean was added a small quantity of water to make bean-like solid material (about 0.25 g), which was freeze-dried. This material was called artificial bean (mungbean 100%) and used in the test.
(§3) The artificial beans (mungbean 100%) were placed in a 9 cm Petri dish, on which was then put the adults shortly after their emergence and eggs were laid on the artificial seeds. The culture environment was fixed at a temperature of 30° C. and a humidity of 60%. After a lapse of 25 to 30 days from the egg production, the adults normally emerged from the artificial beans (mungbean 100%). Thus, it became clear that the bean weevils can utilize the artificial beans for their egg production and emergence, and it was confirmed that the artificial beans are useful in a test of insecticidal activity for bean weevils.
(§4) One artificial seed each of artificial beans in this test was placed in a 9 cm Petri dish, on which the adults of azuki bean weevils or cowpea weevils shortly after the emergence were put and induced to lay eggs. After egg production, the adults were cultured in an incubator fixed at 30° C. and 60% humidity. The number of eggs laid on the artificial beans was recorded, and the number of the adults that emerged from the artificial beans was continuously recorded for up to 50 days after the egg production to calculate the rate of emergence. The artificial beans on which no emergence was recorded by the 50th day after eggs were laid were split with a pair of forceps and checked as to whether there was any larvae in the artificial seed. This experiment, the insecticidal test on the artificial beans, was repeated 4 times.
(§5) The value represented by the weight (g) of the artificial beans which can be prepared from the total weight of rice bean seed powder according to the minimum lethal concentration was regarded as the total activity of the rice bean seed powder. (The value derived by dividing the total weight of rice bean seed powder by the minimum lethal concentration)
(§6) Moreover, the total activity for 1 g of the rice bean seed powder was calculated as specific activity (units/g).
(§7) Insecticidal activity was observed by calculating total activity and specific activity under the same conditions and following the same procedure as in Experiment 1, except that the extract obtained in each step of purification was used in place of the seed powder of rice bean.

[3] = tested on: cowpea weevil (C. maculatus); assay: Insecticidal test on artificial beans, cowpea weevil; type: in vivo, Callosobruchus maculatus; details: cowpea weevils
Experimental: as §1
To 1 g of the cotyledon powder of mungbean was added a small quantity of water to make bean-like solid material (about 0.25 g), which was freeze-dried. This material was called artificial bean (mungbean 100%) and used in the test. […]
as §4, with “After egg production, the adults were cultured in an incubator fixed at 30° C. and 60% humidity.” left out, “This experiment, the insecticidal test on the artificial beans, was repeated 4 times.” left out

[4] = tested on: two species of bean weevils: azuki bean weevil (Callosobruchus chinensis) and cowpea weevil (C. maculatus); assay: Insecticidal test on artificial beans, one result stated for both bean weevil species; type: in vivo
Experimental: Two species of bean weevils, i.e., azuki bean weevil (Callosobruchus chinensis) and cowpea weevil (C. maculatus) were employed. Cowpea weevil was obtained from Kasetsart University, Thailand, under an import license from the Plant Quarantine Office of Japan and subcultured.
as §1, §2, §3, §4, §5, §6, §7

[5] = Table 1, steps from silica gel chromatography on, activity to azuki bean weevils
[6] = Table 2, purification without silica gel, two species of bean weevils

Structure (SMILES) | insecticidal effect (in words) [1] | Specific activity [2, 5] [units/g] | Total activity [2, 5] [units] | rate of emergence ([2]; artificial beans containing 0.05%, 0.1%, or 0.2% of the 7th peak, azuki bean weevils) | rate of emergence ([2]; artificial beans containing 0.1% of the 7th peak) [%] | rate of emergence ([2]; artificial beans containing 0.2% of the 7th peak) [%] | insecticidal activity (in words) ([2]; azuki bean weevils) | minimum lethal concentration ([2]; concentration in artificial beans required for emergence rate 0%, azuki bean weevils) [%] | insecticidal activity (in words) [3] | Specific activity [4, 6] [units/g] | Total activity [4, 6] [units] | rate of emergence ([4]; artificial beans containing 0.05%, 0.1%, or 0.2% of the 5th peak, both species) | rate of emergence ([4]; artificial beans containing 0.1% of the 5th peak, two species) [%] | rate of emergence ([4]; artificial beans containing 0.2% of the 5th peak, two species) [%] | insecticidal activity (in words) ([4]; azuki bean weevils and cowpea weevils) | minimum lethal concentration ([4]; concentration in artificial beans required for emergence rate 0%, both weevil species) [%]
O=c1cc(-c2ccc(O)c(O)c2)oc2cc(O)c([C@@H]3O[C@H](CO)[C@@H](O)[C@H](O)[C@H]3O)c(O)c12 [6-C-β-D-glucosyl-luteolin] | insecticidal effect |  |  |  |  |  |  |  |  |  |  |  |  |  |  | 
O=C1C[C@H](c2ccc(O)cc2)Oc2c1c(O)cc(O)c2[C@@H]1O[C@H](CO)[C@@H](O)[C@H](O)[C@H]1O [8-C-β-D-glucosyl-(R)-naringenin] |  | 1000.0 | 2.0 | low | 0 | 0 | insecticidal substance active to azuki bean weevils; also recorded: shows insecticidal activity | 0.1 | only to azuki bean weevils |  |  |  |  |  |  | 
O=C1C[C@H](c2ccc(O)cc2)Oc2cc(O)c([C@@H]3O[C@H](CO)[C@@H](O)[C@H](O)[C@H]3O)c(O)c21 [6-C-β-D-glucosyl-(R)-naringenin] |  |  |  |  |  |  |  |  | insecticidally active | 1000.0 | 8.0 | low | 0 | 0 | insecticidal substance active to azuki bean weevils and cowpea weevils | 0.1

— patent US20030109462A1, “Novel naringenin derivatives and use thereof” (Japan Science and Technology Corporation, priority 2001, published 2003)
